Measurements as given in patent US9999619B2, “Piperidin-4-yl azetidine derivatives as JAK1 inhibitors” (Incyte Corporation, priority 2010, dated 2018).

Columns and labels:
Type in all cases: biochemical
[1] = molecular target: Jak2 (a.a. 828-1132) (Homo sapiens (Human), UniProt O60674); assay: In vitro JAK kinase assay (HTRF, phosphorylation of a biotinylated peptide), JAK2; settings: measured at 1 mM ATP
Procedure, shortened: (§1)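 N-terminal His-tagged catalytic domains, baculovirus-expressed in insect cells, phosphorylated a biotinylated peptide for 1 hr at room temperature. EDTA stop was followed by SA-APC and Eu-Py20 antibody for 40 minutes, with phosphopeptide read by HTRF.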

[2] = molecular target: human JAK1 (a.a. 837-1142); assay: In vitro JAK kinase assay (HTRF, phosphorylation of a biotinylated peptide), JAK1; settings: ratio of JAK2 IC50 to JAK1 IC50, measured at 1 mM ATP
Procedure, shortened: as §1

[3] = molecular target: human JAK1 (a.a. 837-1142) (Homo sapiens, UniProt P23458); assay: as above; settings: measured at 1 mM ATP
Procedure, shortened: as §1

Sequence of Jak2 (a.a. 828-1132) (O60674 828-1132): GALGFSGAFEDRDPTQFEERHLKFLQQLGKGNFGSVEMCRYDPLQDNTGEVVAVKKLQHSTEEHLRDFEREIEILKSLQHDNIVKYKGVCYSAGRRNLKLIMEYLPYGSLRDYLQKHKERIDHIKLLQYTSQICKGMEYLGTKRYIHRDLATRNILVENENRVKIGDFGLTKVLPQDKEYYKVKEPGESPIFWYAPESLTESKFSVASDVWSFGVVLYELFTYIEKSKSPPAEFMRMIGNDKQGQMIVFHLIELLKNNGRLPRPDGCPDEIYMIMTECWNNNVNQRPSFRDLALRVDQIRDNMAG

SMILES | IC50 [1] [nM] | IC50 Ratio JAK2/JAK1 [2] | IC50 [3] [nM]
N#CCC1(n2cc(-c3ncnc4[nH]ccc34)cn2)CN(C2CCN(C(=O)c3nc(C(F)(F)F)cs3)CC2)C1 [Example 344, [3-[4-(7H-Pyrrolo[2,3-d]pyrimidin-4-yl)-1H-pyrazol-1-yl]-1-(1-{[4-(trifluoromethyl)-1,3-thiazol-2-yl]carbonyl}piperidin-4-yl)azetidin-3-yl]acetonitrile] | 50 to 100 | 18.9 | ≤ 5
N#CCC1(n2cc(-c3ncnc4[nH]ccc34)cn2)CN(C2CCN(C(=O)c3cnc4ccccc4c3)CC2)C1 [Example 88, {3-[4-(7H-pyrrolo[2,3-d]pyrimidin-4-yl)-1H-pyrazol-1-yl]-1-[1-(quinolin-3-ylcarbonyl)piperidin-4-yl]azetidin-3-yl}acetonitrile] | ≤ 10 | 0.9 | 5 to 20
N#CCC1(n2ccc(-c3ncnc4[nH]ccc34)c2)CN(C2CCN(C(=O)c3cccc(F)c3F)CC2)C1 [Example 276, {1-[1-(2,3-difluorobenzoyl)piperidin-4-yl]-3-[3-(7H-pyrrolo[2,3-d]pyrimidin-4-yl)-1H-pyrrol-1-yl]azetidin-3-yl}acetonitrile] | ≤ 10 | 4.0 | ≤ 5
N#CCC1(n2ccc(-c3ncnc4[nH]ccc34)c2)CN(C2CCN(C(=O)Nc3ccc(Cl)cc3C#N)CC2)C1 [Example 293, 4-{3-(cyanomethyl)-3-[3-(7H-pyrrolo[2,3-d]pyrimidin-4-yl)-1H-pyrrol-1-yl]azetidin-1-yl}-N-(4-chloro-2-cyanophenyl)piperidine-1-carboxamide] | 10 to 50 | 3.4 | ≤ 5
COc1ccc(C(=O)N2CCC(N3CC(CC#N)(n4cc(-c5ncnc6[nH]ccc56)cn4)C3)CC2)cc1F [Example 5, {1-[1-(3-fluoro-4-methoxybenzoyl)piperidin-4-yl]-3-[4-(7H-pyrrolo[2,3-d]pyrimidin-4-yl)-1H-pyrazol-1-yl]azetidin-3-yl}acetonitrile] | 10 to 50 | 12.0 | ≤ 5
N#CCC1(n2cc(-c3ncnc4[nH]ccc34)cn2)CN(C2CCN(Cc3c(F)cccc3Cl)CC2)C1 [Example 227, {1-[1-(2-chloro-6-fluorobenzyl)piperidin-4-yl]-3-[4-(7H-pyrrolo[2,3-d]pyrimidin-4-yl)-1H-pyrazol-1-yl]azetidin-3-yl}acetonitrile] | ≤ 10 | 7.9 | ≤ 5
N#CCC1(n2cc(-c3ncnc4[nH]ccc34)cn2)CN(C2CCN(C(=O)C3CCCCC3)CC2)C1 [Example 8, {1-[1-(cyclohexylcarbonyl)piperidin-4-yl]-3-[4-(7H-pyrrolo[2,3-d]pyrimidin-4-yl)-1H-pyrazol-1-yl]azetidin-3-yl}acetonitrile] | 50 to 100 | 11.0 | 5 to 20
Cc1nc(NC(=O)N2CCC(N3CC(CC#N)(n4cc(-c5ncnc6[nH]ccc56)cn4)C3)CC2)sc1C [Example 192, 4-{3-(cyanomethyl)-3-[4-(7H-pyrrolo[2,3-d]pyrimidin-4-yl)-1H-pyrazol-1-yl]azetidin-1-yl}-N-(4,5-dimethyl-1,3-thiazol-2-yl)piperidine-1-carboxamide] | 10 to 50 | 3.0 | 5 to 20
N#CCC1(n2cc(-c3ncnc4[nH]ccc34)cn2)CN(C2CCN(C(=O)C3CCCC3)CC2)C1 [Example 101, {1-[1-(cyclopentylcarbonyl)piperidin-4-yl]-3-[4-(7H-pyrrolo[2,3-d]pyrimidin-4-yl)-1H-pyrazol-1-yl]azetidin-3-yl}acetonitrile] | > 100 | 8.3 | 5 to 20
N#CCC1(n2cc(-c3ncnc4[nH]ccc34)cn2)CN(C2CCN(C(=O)c3ccc(Cl)s3)CC2)C1 [Example 77, {1-{1-[(5-chloro-2-thienyl)carbonyl]piperidin-4-yl}-3-[4-(7H-pyrrolo[2,3-d]pyrimidin-4-yl)-1H-pyrazol-1-yl]azetidin-3-yl}acetonitrile] | ≤ 10 | 5.5 | ≤ 5
N#CCC1(n2cc(-c3ncnc4[nH]ccc34)cn2)CN(C2CCN(C(=O)c3c(F)cc(F)cc3F)CC2)C1 [Example 49, {3-[4-(7H-pyrrolo[2,3-d]pyrimidin-4-yl)-1H-pyrazol-1-yl]-1-[1-(2,4,6-trifluorobenzoyl)piperidin-4-yl]azetidin-3-yl}acetonitrile] | ≤ 10 | 6.5 | ≤ 5
Cc1onc(-c2ccccc2)c1CN1CCC(N2CC(CC#N)(n3cc(-c4ncnc5[nH]ccc45)cn3)C2)CC1 [Example 230, {1-{1-[(5-methyl-3-phenylisoxazol-4-yl)methyl]piperidin-4-yl}-3-[4-(7H-pyrrolo[2,3-d]pyrimidin-4-yl)-1H-pyrazol-1-yl]azetidin-3-yl}acetonitrile] | > 100 | 9.3 | 5 to 20
COc1cscc1C(=O)N1CCC(N2CC(CC#N)(n3cc(-c4ncnc5[nH]ccc45)cn3)C2)CC1 [Example 72, {1-{1-[(4-methoxy-3-thienyl)carbonyl]piperidin-4-yl}-3-[4-(7H-pyrrolo[2,3-d]pyrimidin-4-yl)-1H-pyrazol-1-yl]azetidin-3-yl}acetonitrile] | ≤ 10 | 6.6 | ≤ 5
N#CCC1(n2cc(-c3c(F)cnc4[nH]ccc34)cn2)CN(C2CCN(C(=O)c3ccc(O)c(F)c3)CC2)C1 [Example 322, {1-[1-(3-fluoro-4-hydroxybenzoyl)piperidin-4-yl]-3-[4-(5-fluoro-1H-pyrrolo[2,3-b]pyridin-4-yl)-1H-pyrazol-1-yl]azetidin-3-yl}acetonitrile] | ≤ 10 | 4.7 | ≤ 5
N#CCC1(n2cc(-c3ncnc4[nH]ccc34)cn2)CN(C2CCN(C(=O)c3ccc(-c4ccc5ncccc5c4)c(F)c3)CC2)C1 [Example 2, {1-[1-(3-Fluoro-4-quinolin-6-ylbenzoyl)piperidin-4-yl]-3-[4-(7H-pyrrolo[2,3-d]pyrimidin-4-yl)-1H-pyrazol-1-yl]azetidin-3-yl}acetonitrile] | 50 to 100 | 12.3 | ≤ 5
N#CCC1(n2cc(-c3c(F)cnc4[nH]ccc34)cn2)CN(C2CCN(C(=O)c3ccnc(C(F)(F)F)n3)CC2)C1 [Example 353, [3-[4-(5-Fluoro-1H-pyrrolo[2,3-b]pyridin-4-yl)-1H-pyrazol-1-yl]-1-(1-{[2-(trifluoromethyl)pyrimidin-4-yl]carbonyl}piperidin-4-yl)azetidin-3-yl]acetonitrile] | 10 to 50 | 5.0 | 5 to 20
CN(CCCO)Cc1cc(C(=O)N2CCC(N3CC(CC#N)(n4cc(-c5ncnc6[nH]ccc56)cn4)C3)CC2)nc(C(F)(F)F)n1 [Example 385, {1-(1-{[6-{[(3-hydroxypropyl)(methyl)amino]methyl}-2-(trifluoromethyl)pyrimidin-4-yl]carbonyl}piperidin-4-yl)-3-[4-(7H-pyrrolo[2,3-d]pyrimidin-4-yl)-1H-pyrazol-1-yl]azetidin-3-yl}acetonitrile] | 50 to 100 | 28.9 | ≤ 5
N#CCC1(n2cc(-c3ncnc4[nH]ccc34)cn2)CN(C2CCN(Cc3cccc(C(F)(F)F)c3F)CC2)C1 [Example 212, {1-{-[2-fluoro-3-(trifluoromethyl)benzyl]piperidin-4-yl}-3-[4-(7H-pyrrolo[2,3-d]pyrimidin-4-yl)-1H-pyrazol-1-yl]azetidin-3-yl}acetonitrile] | 50 to 100 | 7.8 | 5 to 20
N#CCC1(n2ccc(-c3ncnc4[nH]ccc34)c2)CN(C2CCN(C(=O)c3nc(C(F)(F)F)cs3)CC2)C1 [Example 346, [3-[3-(7H-Pyrrolo[2,3-d]pyrimidin-4-yl)-1H-pyrrol-1-yl]-1-(1-{[4-(trifluoromethyl)-1,3-thiazol-2-yl]carbonyl}piperidin-4-yl)azetidin-3-yl]acetonitrile] | 10 to 50 | 5.9 | ≤ 5
N#CCC1(n2cc(-c3ncnc4[nH]ccc34)cn2)CN(C2CCN(C(=O)OCc3cc(F)cc(F)c3)CC2)C1 [Example 395, 3,5-difluorobenzyl 4-{3-(cyanomethyl)-3-[4-(7H-pyrrolo[2,3-d]pyrimidin-4-yl)-1H-pyrazol-1-yl]azetidin-1-yl}piperidine-1-carboxylate] | 50 to 100 | 24.4 | ≤ 5
N#CCC1(n2cc(-c3ncnc4[nH]ccc34)cn2)CN(C2CCN(C(=O)Nc3cccc(Cl)c3)CC2)C1 [Example 183, N-(3-chlorophenyl)-4-{3-(cyanomethyl)-3-[4-(7H-pyrrolo[2,3-d]pyrimidin-4-yl)-1H-pyrazol-1-yl]azetidin-1-yl}piperidine-1-carboxamide] | ≤ 10 | 3.8 | ≤ 5
N#CCC1(n2ccc(-c3ncnc4[nH]ccc34)c2)CN(C2CCN(C(=O)Nc3ncccc3C(F)(F)F)CC2)C1 [Example 290, 4-{3-(cyanomethyl)-3-[3-(7H-pyrrolo[2,3-d]pyrimidin-4-yl)-1H-pyrrol-1-yl]azetidin-1-yl}-N-[3-(trifluoromethyl)pyridin-2-yl]piperidine-1-carboxamide] | > 100 | 3.9 | 20 to 30
N#CCC1(n2cc(-c3ncnc4[nH]ccc34)cn2)CN(C2CCN(C(=O)c3ccc(-c4ccncc4)c(F)c3)CC2)C1 [Example 117, {1-[1-(3-fluoro-4-pyridin-4-ylbenzoyl)piperidin-4-yl]-3-[4-(7H-pyrrolo[2,3-d]pyrimidin-4-yl)-1H-pyrazol-1-yl]azetidin-3-yl}acetonitrile] | 10 to 50 | 10.0 | ≤ 5
